Measured values: patent US20130288897A1, “SYNERGISTIC PESTICIDAL COMPOSITIONS” (Dow AgroSciences LLC, priority 2012, published 2013)
Several values for one entry are separate records, joined by “and”; a condition that tells them apart may be missing. Equal entries are not always repeated.

What was measured:
Format in all cases: in vivo
[1] = tested on: cotton aphid (CA) Aphis gossypii; test: Cotton aphid track-sprayer test on cotton: Compound A or imidacloprid with glufosinate (Liberty) and AMS (Example XVII); conditions: for Colby Predicted Values Ave: combination with glufosinate
Protocol: (§1) Glyphosate resistant cotton plants (Gossypium hirsutum, cv ‘DP493’) were trimmed to 1 true leaf and infested with mixed stages of cotton aphid (CA) Aphis gossypii 24 h prior to application. Mixed developmental stage CA were infested onto the upper surface of each treated leaf by transferring infested foliage from an insectary colony. Each plant was infested with approximately equal numbers of CA based on visual estimation of aphid density on the infested material. Infested plants were held in the growth chamber (L:D 16:8 and 25° C.). Glufosinate (Liberty®, Bayer CropScience, Monheim am Rhein, Germany) was mixed with water at a rate equivalent to 5 ml/L (0.4 qt/Ac). […] High rate Compound A concentrations were created by diluting Compound A technical material with acetone to achieve a 10 ppm solution. […] […] […] Nozzle height above the canopy was held constant at ca. 30 cm. Plants were evaluated after 3 days from the time of infestation by counting all live cotton aphids on each plant.
TABLE 6 contains the calculated Colby values for combinations of treatments as well as the outcome of statistical evaluations between predicted (Colby) and actual measured values. These T-test statistics were only calculated for the 0.2 and 0.05 g/Ha rates. […] These same trends were apparent when Compound A was applied with both glufosinate and AMS.

[2] = tested on: cotton aphid (CA) Aphis gossypii; test: Cotton aphid track-sprayer test on cotton: Compound A or imidacloprid with Durango (glyphosate) or Durango Blank and AMS (Example XVI); conditions: for % Control (Negatives to zero) Ave / % control Ave / Colbv predicted values Ave: average of 5 reps
Protocol: as §1, with “C.). Glyphosate (Durango®, Dow AgroSciences, LLC, Indianapolis, Ind.)” for “C.). Glufosinate (Liberty®, Bayer CropScience, Monheim am Rhein, Germany)”, “to 15” for “to 5”, “ml/L (1.2” for “ml/L (0.4”, “qt/Ac). […] A glyphosate free formulation of Durango® was prepared using these same mixing instructions.” for “qt/Ac).”
[…] Percent control for all treatments was calculated using the rep average for the untreated plants.

[3] = tested on: cotton aphid (CA) Aphis gossypii; test: Cotton aphid track-sprayer test on cotton: Compound A with glufosinate (Liberty) and AMS, rates 0.4, 0.1 and 0.025 g/Ha (Example XVIII); conditions: for % control Negatives to zero / CA Counts / Colby Predicted Values: Rep 1-6
Protocol: as §1, with “24 hours” for “24 h”, “a 20” for “a 10”

[4] = 0.0125 g insecticide/Ha with Durango 0.015 ml/ml + AMS 18 g/L
[5] = 0.0125 g insecticide/Ha with Durango 0.015 ml/ml
[6] = 0.0125 g insecticide/Ha with Durango Blank 0.015 ml/ml + AMS 18 g/L
[7] = 0.0125 g insecticide/Ha with Durango Blank 0.015 ml/ml
[8] = 0.05 g insecticide/Ha with Durango 0.015 ml/ml + AMS 18 g/L
[9] = 0.05 g insecticide/Ha with Durango 0.015 ml/ml
[10] = 0.05 g insecticide/Ha with Durango Blank 0.015 ml/ml + AMS 18 g/L
[11] = 0.05 g insecticide/Ha with Durango Blank 0.015 ml/ml
[12] = 0.2 g insecticide/Ha with Durango 0.015 ml/ml + AMS 18 g/L
[13] = 0.2 g insecticide/Ha with Durango 0.015 ml/ml
[14] = 0.2 g insecticide/Ha with Durango Blank 0.015 ml/ml + AMS 18 g/L
[15] = 0.2 g insecticide/Ha with Durango Blank 0.015 ml/ml
[16] = 0.05 g In./HA + Lib. 0.005 ml/ml
[17] = 0.05 g In./HA + Lib. 0.005 ml/ml + AMS 18 g/L
[18] = 0.2 g In./HA + Lib. 0.005 ml/ml
[19] = 0.2 g In./HA + Lib. 0.005 ml/ml + AMS 18 g/L
[20] = 0.8 g In./HA + Lib. 0.005 ml/ml
[21] = 0.8 g In./HA + Lib. 0.005 ml/ml + AMS 18 g/L

O=[N+]([O-])NC1=NCCN1Cc1ccc(Cl)nc1 [Imidacloprid, imidacloprid, reference compound]
% control AVE ([1]; 0.0125 g In./Ha + glufosinate 0.005 ml/ml): 66.5%
Colby Predicted Values Ave ([1]; 0.0125 g In./Ha): 53.6
% control AVE ([1]; 0.05 g In./Ha + glufosinate 0.005 ml/ml): 51.2%
Colby Predicted Values Ave ([1]; 0.05 g In./Ha): 53.8
% control AVE ([1]; 0.2 g In./Ha + glufosinate 0.005 ml/ml): 58.2%
Colby Predicted Values Ave ([1]; 0.2 g In./Ha): 59.6
synergy assessment (measured vs predicted Colby values) ([1]; insecticide applied together with glufosinate): not different from the calculated additive values
synergy assessment (measured vs predicted Colby values) ([1]; insecticide with glufosinate and AMS): No evidence of synergy
% Control (Negatives to zero) Ave [2, 4]: 26.3%
% control Ave [2, 4]: 26.3%
Colbv predicted values Ave [2, 4]: 42.0
% Control (Negatives to zero) Ave [2, 5]: 17.2%
% control Ave [2, 5]: −0.3%
Colbv predicted values Ave [2, 5]: 35.1
% Control (Negatives to zero) Ave [2, 6]: 24.7%
% control Ave [2, 6]: −1.1%
Colbv predicted values Ave [2, 6]: 51.7
% Control (Negatives to zero) Ave [2, 7]: 15.1%
% control Ave [2, 7]: −17.6%
Colbv predicted values Ave [2, 7]: 33.8
% control Ave ([2]; 0.0125 g insecticide/Ha, no herbicide, no AMS): 15.1%
CA Counts ([2]; 0.05 g insecticide/Ha with Durango 0.015 ml/ml + AMS 18 g/L, Rep 1-5, listed as lmidacloprid): 49 and 50 and 71 and 64 and 54
% Control (Negatives to zero) Ave [2, 8]: 37.3%
% control Ave [2, 8]: 37.3%
Colbv predicted values Ave [2, 8]: 46.5
% Control (Negatives to zero) Ave [2, 9]: 25.4%
% control Ave [2, 9]: 21.8%
Colbv predicted values Ave [2, 9]: 38.2
CA Counts ([2]; 0.05 g insecticide/Ha with Durango Blank 0.015 ml/ml + AMS 18 g/L, Rep 1-5, listed as lmidacloprid): 82 and 81 and 108 and 73 and 95
% Control (Negatives to zero) Ave [2, 10]: 11.2%
% control Ave [2, 10]: 5.6%
Colbv predicted values Ave [2, 10]: 58.0
% Control (Negatives to zero) Ave [2, 11]: 24.8%
% control Ave [2, 11]: 20.1%
Colbv predicted values Ave [2, 11]: 41.2
% control Ave ([2]; 0.05 g insecticide/Ha, no herbicide, no AMS): 29.9%
Colbv predicted values ([2]; 0.2 g insecticide/Ha with Durango 0.015 ml/ml + AMS 18 g/L, Rep 1-5, listed as lmidacloprid): 88.5 and 68.2 and 93.5 and 56.2 and 48.8
% Control (Negatives to zero) Ave [2, 12]: 30.8%
% control Ave [2, 12]: 23.9%
Colbv predicted values Ave [2, 12]: 71.0
Colbv predicted values ([2]; 0.2 g insecticide/Ha with Durango 0.015 ml/ml, Rep 1-5, expected additive control, listed as lmidacloprid): 74.5 and 68.6 and 84.8 and 56.2 and 48.8
% Control (Negatives to zero) Ave [2, 13]: 45.5%
% control Ave [2, 13]: 45.5%
Colbv predicted values Ave [2, 13]: 66.6
Colbv predicted values ([2]; 0.2 g insecticide/Ha with Durango Blank 0.015 ml/ml + AMS 18 g/L, Rep 1-5, listed as lmidacloprid): 96.1 and 88.7 and 75.9 and 68.4 and 48.8
% Control (Negatives to zero) Ave [2, 14]: 32.2%
% control Ave [2, 14]: 27.3%
Colbv predicted values Ave [2, 14]: 75.2
Colbv predicted values ([2]; 0.2 g insecticide/Ha with Durango Blank 0.015 ml/ml, Rep 1-5, listed as lmidacloprid): 84.2 and 67.7 and 71.9 and 56.2 and 48.8
% Control (Negatives to zero) Ave [2, 15]: 55.3%
% control Ave [2, 15]: 55.3%
Colbv predicted values Ave [2, 15]: 65.7
synergy assessment (measured vs predicted additive Colby values) ([2]; 0.2 g insecticide/Ha, co-applied with AMS and Durango): antagonism of imidacloprid activity
CA Counts ([2]; 0.2 g insecticide/Ha, no herbicide, no AMS, Rep 1-5, live aphids per plant after 3 days, listed as lmidacloprid): 30 and 51 and 44 and 32 and 38
% control ([2]; 0.2 g insecticide/Ha, no herbicide, no AMS, Rep 1-5, vs rep average of untreated plants, listed as lmidacloprid): 74.5% and 50.4% and 61.1% and 56.2% and 48.8%
% control Ave ([2]; 0.2 g insecticide/Ha, no herbicide, no AMS): 58.2%
synergy assessment (measured vs predicted additive Colby values) ([2]; 0.2 g insecticide/Ha, only Durango mixed): no effects
synergy assessment (measured vs predicted additive Colby values) ([2]; 0.2 g insecticide/Ha, with Durango blank and AMS): antagonistic effect
synergy assessment (measured vs predicted additive Colby values) ([2]; 0.2 g insecticide/Ha, with Durango blank formulation): no significant difference between predicted and measured activity
% Control (Negatives to zero) Ave [3, 16]: 24.3%
Colby Predicted Values Ave [3, 16]: 45.1
% Control (Negatives to zero) Ave [3, 17]: 76.9%
Colby Predicted Values Ave [3, 17]: 51.7
% Control (Negatives to zero) Ave ([3]; 0.05 g In./HA, no Lib., no AMS): 19.0%
% Control (Negatives to zero) Ave [3, 18]: 27.0%
Colby Predicted Values Ave [3, 18]: 54.6
% Control (Negatives to zero) Ave [3, 19]: 54.3%
Colby Predicted Values Ave [3, 19]: 60.7
% Control (Negatives to zero) Ave ([3]; 0.2 g In./HA, no Lib., no AMS): 38.7%
% Control (Negatives to zero) Ave [3, 20]: 72.3%
Colby Predicted Values Ave [3, 20]: 86.1
% Control (Negatives to zero) Ave [3, 21]: 96.5%
Colby Predicted Values Ave [3, 21]: 88.0
% Control (Negatives to zero) Ave ([3]; 0.8 g In./HA, no Lib., no AMS): 80.0%
% control Negatives to zero [3, 17]: 84.6% and 71.0% and 86.9% and 48.9% and 79.9% and 89.9%
CA Counts ([3]; 0.2 g In./Ha + Liberty 0.005 ml/ml): 187 and 234 and 169 and 198 and 265 and 240
CA Counts ([3]; 0.2 g In./Ha, no Liberty, no AMS): 154 and 165 and 228 and 241 and 176 and 123
% control Negatives to zero [3, 20]: 87.5% and 73.3% and 71.0% and 78.3% and 69.2% and 54.7%
Colby Predicted Values [3, 20]: 81.9 and 81.5 and 94.8 and 78.1 and 94.0 and 86.3
% control Negatives to zero [3, 21]: 96.7% and 94.4% and 96.0% and 94.2% and 98.3% and 99.7%
Colby Predicted Values [3, 21]: 86.8 and 83.6 and 95.2 and 78.2 and 94.5 and 89.7
% control Negatives to zero ([3]; 0.8 g In./HA, no Lib., no AMS): 75.5% and 81.5% and 91.6% and 73.2% and 74.2% and 84.3%
